Source: ChEMBL document CHEMBL3879907, “8-azabicyclo[3.2.1]octane compounds as mu opioid receptor antagonists” (2014)

Tests used:
[1] = biological target: Kappa-type opioid receptor (Cavia porcellus, UniProt P41144); assay: Displacement of [3H]-diprenorphine from guinea pig kappa opioid receptor expressed in CHOK1 cell membranes; settings: cho-k1
[2] = biological target: Delta-type opioid receptor (Homo sapiens, UniProt P41143); assay: Displacement of [3H]-diprenorphine from human delta opioid receptor expressed in cell membranes
Delta-type opioid receptor, sequence (P41143 whole entry): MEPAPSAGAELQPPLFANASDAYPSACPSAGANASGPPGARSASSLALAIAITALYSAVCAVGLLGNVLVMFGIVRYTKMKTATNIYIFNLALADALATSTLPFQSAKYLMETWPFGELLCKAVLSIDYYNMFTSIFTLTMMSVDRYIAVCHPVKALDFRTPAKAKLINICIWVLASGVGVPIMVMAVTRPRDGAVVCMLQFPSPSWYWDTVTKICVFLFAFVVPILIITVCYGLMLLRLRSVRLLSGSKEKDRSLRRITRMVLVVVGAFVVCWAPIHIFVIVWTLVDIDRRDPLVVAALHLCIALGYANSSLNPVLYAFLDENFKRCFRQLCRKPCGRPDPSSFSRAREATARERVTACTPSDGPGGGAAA

[3] = biological target: Mu-type opioid receptor (Homo sapiens) (UniProt P35372); assay: Intrinsic activity at human mu opioid receptor expressed in CHOK1 cell membranes at 0.00001 to 20 uM after 30 mins by GTP-Eu nucleotide exchange assay relative to DAMGO; assay type: functional; settings: CHO-K1
Mu-type opioid receptor (Homo sapiens), sequence (P35372 whole entry): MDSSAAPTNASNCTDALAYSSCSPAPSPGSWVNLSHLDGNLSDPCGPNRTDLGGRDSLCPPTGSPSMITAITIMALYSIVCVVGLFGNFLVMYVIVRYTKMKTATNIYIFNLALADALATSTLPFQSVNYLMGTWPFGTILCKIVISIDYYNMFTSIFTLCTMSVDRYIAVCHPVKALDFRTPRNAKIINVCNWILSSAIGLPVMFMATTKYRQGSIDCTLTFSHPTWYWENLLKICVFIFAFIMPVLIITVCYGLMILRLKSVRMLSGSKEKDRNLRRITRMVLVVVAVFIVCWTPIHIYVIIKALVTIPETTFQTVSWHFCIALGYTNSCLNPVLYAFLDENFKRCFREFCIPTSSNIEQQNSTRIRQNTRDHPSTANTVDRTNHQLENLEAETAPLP

Kappa-type opioid receptor, sequence (P41144 whole entry): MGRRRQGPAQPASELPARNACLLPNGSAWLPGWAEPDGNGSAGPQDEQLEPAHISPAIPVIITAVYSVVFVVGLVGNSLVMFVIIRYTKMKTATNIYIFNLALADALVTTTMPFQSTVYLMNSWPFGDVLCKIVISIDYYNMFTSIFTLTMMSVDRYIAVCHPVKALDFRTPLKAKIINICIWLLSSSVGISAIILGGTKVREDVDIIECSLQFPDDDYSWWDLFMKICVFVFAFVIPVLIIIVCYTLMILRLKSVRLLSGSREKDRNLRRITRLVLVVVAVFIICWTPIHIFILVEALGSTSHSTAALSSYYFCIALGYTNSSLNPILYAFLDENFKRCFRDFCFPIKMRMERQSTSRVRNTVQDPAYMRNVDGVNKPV

SMILES	pKi [1]	pKi [2]	Intrinsic activity [3] [%]
CC(C)(C(=O)N(CCN1[C@@H]2CC[C@H]1C[C@@H](c1cccc(C(N)=O)c1)C2)CC1CCC1)S(C)(=O)=O.O=C(O)C(F)(F)F	7 to 10.5	7 to 10.5	< 40
NC(=O)c1cccc([C@H]2C[C@H]3CC[C@@H](C2)N3CCN(CCc2ccccc2)C(=O)[C@@H](O)CO)c1.O=C(O)C(F)(F)F	7 to 10.5	7 to 10.5	< 40
NC(=O)c1cccc([C@H]2C[C@H]3CC[C@@H](C2)N3CCN(CC2CCCCC2)C(=O)NCc2ccc(F)cc2)c1	7 to 10.5	7 to 10.5	< 40
O=C(Nc1ccc(OC(F)F)cc1)N(CCN1[C@@H]2CC[C@H]1C[C@@H](c1cccc(O)c1)C2)CC1CCCCC1	7 to 10.5	7 to 10.5	< 40
NC(=O)c1cccc([C@H]2C[C@H]3CC[C@@H](C2)N3CCCN(Cc2ccccc2)C(=O)CO)c1	7 to 10.5	7 to 10.5	< 40
CS(=O)(=O)CC(=O)N(CCc1ccc(F)cc1)CCN1[C@@H]2CC[C@H]1C[C@@H](c1cccc(C(N)=O)c1)C2.O=C(O)C(F)(F)F	7 to 10.5	7 to 10.5	< 40
CS(=O)(=O)CC(=O)N(CCN1[C@@H]2CC[C@H]1C[C@@H](c1cccc(O)c1)C2)CC1CCCCC1	7 to 10.5	7 to 10.5	< 40
C[C@H](CN1[C@@H]2CC[C@H]1C[C@@H](c1cccc(O)c1)C2)N(Cc1ccccc1)C(=O)CCC1CCCC1	7 to 10.5	7 to 10.5	< 40
CN[C@@H](CO)C(=O)N(CCN1[C@@H]2CC[C@H]1C[C@@H](c1cccc(C(N)=O)c1)C2)CC1CCCCC1.O=C(O)C(F)(F)F.O=C(O)C(F)(F)F	7 to 10.5	7 to 10.5	< 40
COCC(=O)N(CCN1[C@@H]2CC[C@H]1C[C@@H](c1cccc(C(N)=O)c1)C2)Cc1c(F)cccc1F.O=C(O)C(F)(F)F	7 to 10.5	7 to 10.5	< 40
O=C([C@@H](O)C1CCCCC1)N(CCN1[C@@H]2CC[C@H]1C[C@@H](c1cccc(O)c1)C2)CC1CCCCC1	7 to 10.5	7 to 10.5	< 40
O=C(Nc1ccc2c(c1)OCO2)N(CCN1[C@@H]2CC[C@H]1C[C@@H](c1cccc(O)c1)C2)CC1CCCCC1	7 to 10.5	7 to 10.5	< 40
NC(=O)c1cccc([C@H]2C[C@H]3CC[C@@H](C2)N3CCN(Cc2c(F)cccc2F)C(=O)[C@H]2CC[C@H](O)CC2)c1.O=C(O)C(F)(F)F	7 to 10.5	7 to 10.5	< 40
NC(=O)c1cccc([C@H]2C[C@H]3CC[C@@H](C2)N3CCN(CC2CCCCC2)C(=O)[C@@H](O)Cc2ccccc2)c1	7 to 10.5	7 to 10.5	< 40
NC(=O)c1cccc([C@H]2C[C@H]3CC[C@@H](C2)N3CCN(Cc2ccccc2)C(=O)[C@@H](O)CO)c1.O=C(O)C(F)(F)F	7 to 10.5	7 to 10.5	< 40
NC(=O)c1cccc([C@H]2C[C@H]3CC[C@@H](C2)N3CCN(CC2CCCCC2)C(=O)C[C@H](O)CO)c1.O=C(O)C(F)(F)F	7 to 10.5	7 to 10.5	< 40
CC1(C)C(CN(CCN2[C@@H]3CC[C@H]2C[C@@H](c2cccc(C(N)=O)c2)C3)C(=O)CO)C1(C)C	7 to 10.5	7 to 10.5	< 40
NC(=O)c1cccc([C@H]2C[C@H]3CC[C@@H](C2)N3CCN(CCCc2ccccc2)C(=O)CO)c1	7 to 10.5	7 to 10.5	< 40
CC(C)CC(=O)N(Cc1ccccc1)[C@H](C)CN1[C@@H]2CC[C@H]1C[C@@H](c1cccc(O)c1)C2	7 to 10.5	7 to 10.5	< 40
CC(C)(CO)C(=O)N(CCN1[C@@H]2CC[C@H]1C[C@@H](c1cccc(C(N)=O)c1)C2)Cc1c(F)cccc1F.O=C(O)C(F)(F)F	7 to 10.5	7 to 10.5	< 40
NC(=O)c1cccc([C@H]2C[C@H]3CC[C@@H](C2)N3CCN(Cc2c(F)cccc2F)C(=O)[C@@H](O)Cc2ccccc2)c1.O=C(O)C(F)(F)F	7 to 10.5	7 to 10.5	< 40
CC(=O)N(Cc1ccccc1)[C@H](C)CN1[C@@H]2CC[C@H]1C[C@@H](c1cccc(O)c1)C2	7 to 10.5	7 to 10.5	< 40
O=C(O)CCC(=O)N(CCN1[C@@H]2CC[C@H]1C[C@@H](c1cccc(O)c1)C2)CC1CCCCC1 (single isomer, unassigned)	7 to 10.5	7 to 10.5	< 40
O=C(O)CC(=O)N(CCN1[C@@H]2CC[C@H]1C[C@@H](c1cccc(O)c1)C2)Cc1cccc(F)c1	7 to 10.5	7 to 10.5	< 40
NC(=O)c1cccc([C@H]2C[C@H]3CC[C@@H](C2)N3CCN(Cc2ccc(C(F)(F)F)cc2)C(=O)CO)c1.O=C(O)C(F)(F)F	7 to 10.5	7 to 10.5	< 40

SMILES	pKi [1]	pKi [2]	Intrinsic activity [3] [%]
O=C([C@@H](O)Cc1ccccc1)N(CCN1[C@@H]2CC[C@H]1C[C@@H](c1cccc(O)c1)C2)CC1CCCCC1	7 to 10.5	7 to 10.5	< 40
O=C([C@@H](O)c1ccccc1)N(CCN1[C@@H]2CC[C@H]1C[C@@H](c1cccc(O)c1)C2)CC1CCCCC1	7 to 10.5	7 to 10.5	< 40
NC(=O)c1cccc([C@H]2C[C@H]3CC[C@@H](C2)N3CCN(Cc2cccc(F)c2)C(=O)CO)c1.O=C(O)C(F)(F)F	7 to 10.5	7 to 10.5	< 40
CS(=O)(=O)CC(=O)N(CCN1[C@@H]2CC[C@H]1C[C@@H](c1cccc(C(N)=O)c1)C2)Cc1ccc(C(F)(F)F)cc1.O=C(O)C(F)(F)F	7 to 10.5	7 to 10.5	< 40
NC(=O)c1cccc([C@H]2C[C@H]3CC[C@@H](C2)N3CCN(CC2CCCCC2)C(=O)[C@@H](O)CCO)c1.O=C(O)C(F)(F)F	7 to 10.5	7 to 10.5	< 40
CS(=O)(=O)CC(=O)N(CCCN1[C@@H]2CC[C@H]1C[C@@H](c1cccc(C(N)=O)c1)C2)CC1CCCCC1	7 to 10.5	7 to 10.5	< 40
NC(=O)c1cccc([C@H]2C[C@H]3CC[C@@H](C2)N3CCN(CC2CCCCC2)C(=O)C2(O)CC2)c1.O=C(O)C(F)(F)F	7 to 10.5	7 to 10.5	< 40
CC(C)(O)C(=O)N(CCCN1[C@@H]2CC[C@H]1C[C@@H](c1cccc(C(N)=O)c1)C2)Cc1ccccc1.O=C(O)C(F)(F)F	7 to 10.5	7 to 10.5	< 40
N#CCC(=O)N(CCN1[C@@H]2CC[C@H]1C[C@@H](c1cccc(C(N)=O)c1)C2)Cc1c(F)cccc1F.O=C(O)C(F)(F)F	7 to 10.5	7 to 10.5	< 40
CC(C)(O)C(=O)N(CCN1[C@@H]2CC[C@H]1C[C@@H](c1cccc(C(N)=O)c1)C2)Cc1c(F)cccc1F.O=C(O)C(F)(F)F	7 to 10.5	7 to 10.5	< 40
O=C(Cc1ccccc1)N(CCN1[C@@H]2CC[C@H]1C[C@@H](c1cccc(O)c1)C2)CC1CCCCC1	7 to 10.5	7 to 10.5	< 40
CS(=O)(=O)CC(=O)N(CCN1[C@@H]2CC[C@H]1C[C@@H](c1cccc(C(N)=O)c1)C2)CC1CCC(F)(F)CC1.O=C(O)C(F)(F)F	7 to 10.5	7 to 10.5	< 40
NC(=O)c1cccc([C@H]2C[C@H]3CC[C@@H](C2)N3CCN(CC2CCCCC2)C(=O)Nc2ccc3c(c2)OCO3)c1	7 to 10.5	7 to 10.5	< 40
CC(=O)N(CCN1[C@@H]2CC[C@H]1C[C@@H](c1cccc(O)c1)C2)Cc1c(F)cccc1F	7 to 10.5	7 to 10.5	< 40
CS(=O)(=O)CC(=O)N(CCN1[C@@H]2CC[C@H]1C[C@@H](c1cccc(O)c1)C2)Cc1c(F)cccc1F	7 to 10.5	7 to 10.5	< 40
O=C(O)CCC(=O)N(CCN1[C@@H]2CC[C@H]1C[C@@H](c1cccc(O)c1)C2)Cc1ccccc1	7 to 10.5	7 to 10.5	< 40
NC(=O)c1cccc([C@H]2C[C@H]3CC[C@@H](C2)N3CCN(CCc2ccc(O)cc2)C(=O)CO)c1.O=C(O)C(F)(F)F	7 to 10.5	7 to 10.5	< 40
O=C(O)CCC(=O)N(CCN1[C@@H]2CC[C@H]1C[C@@H](c1cccc(O)c1)C2)Cc1c(F)cccc1F	7 to 10.5	7 to 10.5	< 40
CC(C)(C)OCC(=O)N(CCN1[C@@H]2CC[C@H]1C[C@@H](c1cccc(C(N)=O)c1)C2)Cc1c(F)cccc1F.O=C(O)C(F)(F)F	7 to 10.5	7 to 10.5	< 40
NC(=O)c1cccc([C@H]2C[C@H]3CC[C@@H](C2)N3CCN(Cc2c(F)cccc2F)C(=O)[C@H](O)CO)c1.O=C(O)C(F)(F)F	7 to 10.5	7 to 10.5	< 40
NC(=O)c1cccc([C@H]2C[C@H]3CC[C@@H](C2)N3CCN(CC2CCC2)C(=O)[C@@H](O)CO)c1.O=C(O)C(F)(F)F	7 to 10.5	7 to 10.5	< 40
CC(=O)N(CCN1[C@@H]2CC[C@H]1C[C@@H](c1cccc(O)c1)C2)CC1CCCCC1	7 to 10.5	7 to 10.5	< 40
CC(C)(CO)C(=O)N(CCN1[C@@H]2CC[C@H]1C[C@@H](c1cccc(C(N)=O)c1)C2)Cc1ccccc1.O=C(O)C(F)(F)F	7 to 10.5	7 to 10.5	< 40
NC(=O)c1cccc([C@H]2C[C@H]3CC[C@@H](C2)N3CCN(CC2CCCCC2)C(=O)[C@H](O)CO)c1	7 to 10.5	7 to 10.5	< 40
NCC(=O)N(CCN1[C@@H]2CC[C@H]1C[C@@H](c1cccc(C(N)=O)c1)C2)CC1CCCCC1	7 to 10.5	7 to 10.5	< 40
